One data set concerns MIA PaCa-2 cells. Nature of the data set: Proliferation of MIA PaCa-2 cells treated with drug pre-incubated with human serum. Particulars: MIA PaCa-2, serum pre-incubation 2 hours at 37° C., then 72 hours on cells. The class given is cell-based. The procedure:
(§1) Methods: The cells were seeded in 96-well plates one day before treatment at a density of 5000 cells/well in 100 μl/well of medium DMEM/Glutamax™/1 mM sodium pyruvate/PS/10%/FBS and cultured at 37° C./5% CO2. Separate serum dilutions of dFdC and FpFpF trinucleotide were prepared from 1 mM stock solutions to a final concentration of 20 μmol/L. The sera aliquots containing either drug were incubated at 37° C./5% CO2 for the indicated times before they were added to the cells to the indicated final concentrations. The cells were incubated for further 72 hours after which the cell proliferation was quantified using the WST-1 assay. Two controls were run in parallel: untreated cells and cells treated with dFdC or FpFpF trinucleotides that were not incubated with serum.

For data set [1], the system named is HeLa cells. Nature of the data set: HeLa xenograft tumor growth delay in immunodeficient mice. The class given is in vivo. The conditions noted are these: 10 mg/kg intraperitoneally every fourth day, four doses. As to the method: Objective: To compare the anti-tumor activities of FpFpF trinucleotide and dFdC in vivo in a xenograft model. HeLa cells and immunodeficient mice were used in this assay as described below.
Methods. Immunodeficient CAnN.Cg-Fox1^nu/Cr1 (BALB/c) mice (The Jackson Laboratories) are well suited for the xenotransplantation of human tumors. HeLa cells (5×10^6) were mixed 1:1 with matrigel in a final volume of 0.1 ml and then injected subcutaneously in the right flank of each mouse. Treatments were initiated at the time when the tumor volume reached approximately 200 mm^3. The drugs (FpFpF trinucleotide or dFdC) were administered intraperitoneally at 10 mg/kg every fourth day for a total of four doses. Tumor volumes were calculated with the ellipsoid volume formula (L×W×H×π/6) (Tomayko and Reynolds, 1989). Tumor volume values were transformed to a log scale. A two-way analysis of variance by time and treatment was used. The data are finally expressed as means and standard errors for each treatment group against time. A Weibull distribution was assumed to calculate mean times and standard errors for each treatment group. Tumor growth delay was defined as the difference in mean time between each treated group and the control group.

The test system of data set [2] is HeLa cells. Nature of the data set: Proliferation of HeLa cells treated with drug pre-incubated with human serum. The class given is cell-based. Particulars: serum pre-incubation 2 hours at 37° C., then 72 hours on cells. As to the method:
as §1

The conditions of data set [3]: following intravenous administration; cited from earlier work.
The conditions of data set [4]: in vivo; cited from earlier work.
The subject of a further data set is Panc-1 cells. Nature of the data set: Inhibition of proliferation of Panc-1 cells. It is filed as cell-based. The conditions noted are these: Homo sapiens, read-out: ID50 (the source's name). The procedure: Methods: The FpFpF trinucleotide was coupled to lipid as described in the Example 3 for the Palmitoyl-trinucleotide (5′-FpFpF-3′-Pal). Panc-1 cells were plated one day before treatment at a density of 5000 cells/well in a 96-well plate with 100 μl/well of medium RPMI/Glutamax™/1 mM sodium pyruvate/PS/10% FBS and cultured at 37° C./5% CO2. Treatments (6 wells per condition) with wither dFdC, FpFpF and FpFpF-Pal were carried out at the indicated concentrations.

For data set [5] the following is noted: mice, normal tissues and subcutaneous sarcoma tissue; cited from earlier work.
Data set [6] relates to HeLa cells. The data set can be described thus: WST-1 cell proliferation assay, HeLa cells. The class given is cell-based, human. Details: dose or concentration left out as unconfirmed. The conditions noted are these: 5 days after start of treatment, WST-1, relative to untreated cells. The procedure: FIG. 1. Inhibition of proliferation of human cancer cells treated with either dFdC or homo-oligomers and hetero-oligomers containing dFdC. HeLa cells growing on 96-well plates (5000 cells/well) were treated with: 1) TpF; 2) FpF; 3) TpFpF; 4) FpFpF; 5) dFdC. The concentration of drug in the culture medium […]. Cell proliferation was measured 5 days after treatment was started using the WST-1 assay. The mean value obtained with untreated cells was set at 1.
Methods: Cervical cancer cell lines (HeLa, SiHa, CaSki and C-33) were cultured at 37° C./5% CO2 in medium containing DMEM with Glutamax™, 1 mM sodium pyruvate, penicillin/streptomycin (PS) and 10% fetal bovine serum (FBS) (Invitrogen/LifeTechnologies). […] The cells were incubated with WST-1 for 1 hour at 37° C./5% CO2, then the amount of formazan dye produced was quantified using a scanning spectrophotometer (ELISA plate reader). The absorbance was measured with a test wavelength at 450 nm and a reference wavelength at 630 nm. Then, the 630 nm background absorbance was subtracted from the 450 nm measurement. […]
2) The FpFpF trinucleotide was tested in comparison with dFdC for its ability to inhibit cell growth of tumor cells of different origin: pancreatic cancer (MIA PaCa-2, ASPC) cervical (HeLa, CaSki, C33A) and hepatic (Huh-7) cancers. […] At this time cell proliferation was quantified using the WST-1 assay as described above. […]
On the technique in general: Tetrazolium dyes change colour on reduction, which living cells bring about.

Take `Nc1ccn([C@@H]2O[C@H](CO)[C@@H](O)C2(F)F)c(=O)n1` [dFdC, 2′.2′-difluoro 2′-deoxycytidine]: the “inhibition of proliferation after pre-incubation of drug with human serum” value stood at 10% in the data set on MIA PaCa-2 cells and 5% in the data set with HeLa cells [2]. The “Tumor Growth Delay at 500 mm^3, Mean ± S.E.M.” value in the data set with HeLa cells [1] (tumor size 500 mm^3) is on record as 2.8 ± 0.3 days. In addition, the “Tumor Growth Delay at 700 mm^3, Mean ± S.E.M.” value in the data set with HeLa cells [1] (tumor size 700 mm^3) worked out at 4.9 ± 0.6 days. For the same compound, the “Tumor Growth Delay at 900 mm^3, Mean ± S.E.M.” value in the data set with HeLa cells [1] (tumor size 900 mm^3) stood at 7.7 ± 0.5 days. Also, the “half-life in the human plasma” value in data set [3] is 8 to 17 min. The “excreted unprocessed in the urine” value in data set [4] was “less than 10%”. Moreover, in the data set with Panc-1 cells, the IC50 amounted to 12.2 µM. Further, the “time radiolabeled dFdC remains in tissues” value in data set [5] was “up to 3 hours”.
Take “2′-deoxy-2′,2′-difluorocytidinyl 3′-5′ phosphate 2′-deoxy-2′,2′-difluorocytidine [FpF]”: the “inhibition of cell proliferation” value in the data set with HeLa cells [6] is around 56%.
Same read-out and setting: the figure for “thymidinyl 3′-5′ phosphate 2′-deoxy-2′,2′-difluorocytidine [TpF]” is 19%.

The record behind these values is patent publication US20160324885A1, “COMPOSITION CONTAINING MODIFIED DERIVATIVES OF A CYTIDINE ANTIMETABOLITE FOR THE TREATMENT OF SUSCEPTIBLE DISEASE” (ASTERIAPHARMA GMBH, priority 2013, published 2016).
